Results from PubChem BioAssay (NCI).
“And” between values parts separate entries of the source, which are not always exact repeats. Equal values may be shown once.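 96-well plates; 48 h exposure; 5 concentrations. Endpoints by linear interpolation between flanking doses. Not reached: highest tested concentration assigned. GI50 = concentration required for 50% inhibition of growth. TGI marks complete inhibition of growth.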

Experiments:
P388 leukemia = assay: NCI tumour cell line growth inhibition, 48 h
SN12K1 renal = assay: NCI tumour cell line growth inhibition, 48 h

Cc1[nH]c(=O)[nH]c(=O)c1N(CCF)CCCl
GI50 (P388 leukemia): 190 µM and 58.3 µM and 223 µM | TGI (P388 leukemia): 485 µM and 1330 µM and 791 µM | GI50 (SN12K1 renal): 187 µM | TGI (SN12K1 renal): 513 µM and 703 µM and 657 µM
